{"source": "patent US8470738B2", "about": "“Pyridazinone compound and herbicide containing the same” (Sumitomo Chemical Company, Limited, priority 2007, dated 2013)", "key": {"[1]": {"test_system": "Apera spica-venti", "experiment": "Pre-emergence treatment test in dry field", "format": "in vivo", "details": "treatment amount 500 g/ha; sprayed onto soil surface after sowing; three weeks after treatment; 0 = no effect, 10 = complete death", "experimental": "A plastic container (32 cm×22 cm×8 cm in height) was filled with soil sterilized by steam. Seeds of Apera spica-venti were sowed in the container and covered with soil about 0.5 cm thick. Then, a diluted liquid formulation containing a prescribed amount of the compound I-a-1 was sprayed onto the soil surface uniformly. The diluted liquid formulation was prepared by the method similar to that in Test example 1. After the treatment, the plants were grown in a greenhouse. Three weeks after treatment, the controlling effect of the compound on Apera spica-venti was visually evaluated. The effect was rated in 11 levels, from 0 to 10 similarly to Test example 1.\nThe other compounds of the present invention and Compound A as a comparative example were similarly tested."}, "[2]": {"test_system": "Lolium multiflorum", "experiment": "Post-emergence treatment test in dry field", "format": "in vivo", "details": "treatment amount 500 g/ha; foliar spray at first to second leaf stage; twenty days after treatment; 0 = no effect, 10 = complete death", "experimental": "A plastic cup with a diameter of 8 cm and a depth of 6.5 cm was filled with commercially available soil. Seeds of Lolium multiflorum were sowed in the cup, covered with soil about 0.5 cm thick and then grown in a greenhouse. When the plants were grown in the first to second leaf stage, a diluted liquid formulation containing a prescribed amount of the compound I-a-2 was sprayed onto the whole plants uniformly. The diluted liquid formulation was prepared by dissolving a prescribed amount of the compound I-a-2 in a 2% solution of Tween 20 (polyoxyethylene sorbitan fatty acid ester, MP Biomedicals, Inc.) in dimethylformamide and then diluting the solution with deionized water. After the treatment, the plants were grown in a greenhouse. Twenty days after treatment, the controlling effect of the compound on Lolium multiflorum was visually evaluated. The effect was rated in 11 levels, from 0 to 10 (0 represents “no effect”; 10 represents “complete death”; and a state of the plant therebetween is rated in levels of 1 to 9).\nThe other compounds of the present invention, and Compound A described in J. Heterocycl. Chem., vol. 42, pp. 427-435 (2005) as a comparative example were similarly tested."}}}
{"smiles": "Cc1ccccc1-c1c(O)cnn(C)c1=O", "note": "[Compound A]", "values": [{"measurement": "controlling effect on Apera spica-venti (visually evaluated, rated 0 to 10)", "setting": "[1]", "value": 1}, {"measurement": "controlling effect on Lolium multiflorum (visually evaluated, rated 0 to 10)", "setting": "[2]", "value": 1}]}
